Reference: article PMC8453745, “Human Mass Balance and Metabolite Profiling of [^14C]‐Pamiparib, a Poly (ADP‐Ribose) Polymerase Inhibitor, in Patients With Advanced Cancer” (Clinical Pharmacology in Drug Development, 2021)
Several values for one entry are separate records, joined by “and”; a condition that tells them apart may be missing. Identical values can stand only once. Like-named read-outs stand apart in the source and are kept apart here.

Assays:
[1] = tested on: BRCA1 mutant mouse xenograft; settings: BRCA1 mutant mouse xenograft model; cited from earlier work
[2] = cited from earlier work
CYP2C8 = target: T1, CYP2C8 (Homo sapiens, UniProt P10632); experiment: CYP450 phenotyping in HLMs with CYP2C8 inhibitor montelukast; assay type: in vitro ADME; settings: 90‐minute HLM incubation with CYP2C8 inhibitor montelukast (16 μM)
T1 construct: tissue Corning (Woburn, New York); host or cells: pooled human liver microsomes
T1 sequence (P10632 1-490): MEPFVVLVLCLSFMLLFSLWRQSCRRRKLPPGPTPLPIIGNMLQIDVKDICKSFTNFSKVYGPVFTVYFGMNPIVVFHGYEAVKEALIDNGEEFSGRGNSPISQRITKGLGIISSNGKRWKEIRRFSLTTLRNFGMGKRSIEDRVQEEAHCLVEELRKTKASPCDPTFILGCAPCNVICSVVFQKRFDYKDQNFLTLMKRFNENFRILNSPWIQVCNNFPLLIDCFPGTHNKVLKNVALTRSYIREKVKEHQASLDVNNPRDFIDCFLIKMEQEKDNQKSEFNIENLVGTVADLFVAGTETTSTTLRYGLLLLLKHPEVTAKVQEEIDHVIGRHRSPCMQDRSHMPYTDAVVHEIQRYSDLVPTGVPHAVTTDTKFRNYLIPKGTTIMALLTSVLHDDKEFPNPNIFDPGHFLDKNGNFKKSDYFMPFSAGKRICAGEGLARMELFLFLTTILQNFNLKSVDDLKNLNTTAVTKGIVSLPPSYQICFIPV
Procedure: Metabolic stability in human liver microsomes (HLMs) and cytochrome P450 (CYP450) phenotyping assays were conducted in 3D BioOptima (Suzhou, China) using validated methodology, [13] to determine the intrinsic clearance and enzymes responsible for metabolism of pamiparib. HLMs for microsome stability was from BD Biosciences (Woburn, New York). For phenotyping, HLMs and recombinant P450 (rCYP) were from Corning (Woburn, New York). Pamiparib (1 μM) was incubated with pooled HLM (0.5 mg/mL), NADPH (1 mM), and MgCl2 (3 mM) terminated at 0, 5, 15, 30, 60, and 90 minutes. The intrinsic clearance was calculated as 0.693/(t1/2 × HLM concentration), where t1/2 is the half‐life of pamiparib determined in HLMs. For phenotyping in HLMs, pamiparib (1 μM) was incubated in the absence or presence of isoform‐selective inhibitors: 0.2 μM α‐naphthoflavone for CYP1A2, 2 μM clopidogrel for CYP2B6, 16 μM montelukast for CYP2C8, 10 μM sulfaphenazole for CYP2C9, 30 μM nootkatone for CYP2C19, 2 μM quinidine for CYP2D6, and 1 μM ketoconazole for CYP3A. The following isoform‐selective probe substrates served as positive controls: 40 μM phenacetin for CYP1A2, 100 μM bupropion for CYP2B6, 2 μM amodiaquine for CYP2C8, 5 μM diclofenac for CYP2C9, 40 μM S‐mephenytoin for CYP2C19, 5 μM dextromethorphan for CYP2D6, and 2 μM midazolam for CYP3A4. […] Pamiparib, M1, and M2 were analyzed by LC‐MS/MS.

[3] = metabolite profiling in plasma (radioprofiling, LC‐MS); assay type: in vivo, human
Procedure: (§1) Total radioactivity concentrations of [^14C]‐pamiparib in whole blood, plasma, urine, and feces were determined by liquid scintillation counting (LSC). Radioactivity in each sample was measured for 5 minutes using a Packard Tri‐Carb liquid scintillation counter model 2100TR, 2900TR, or 3100TR (Canberra Packard, Pangbourne, Berks, Australia) with the facilities for computing quench‐corrected disintegrations per minute. Metabolite identification in plasma, urine, and feces was conducted by LC‐MS. Quantitation of the metabolites present in plasma, urine, and feces was based on the profiles of radioactivity. The limit of quantitation for radioactivity in plasma, urine, and feces was set at 1% of each chromatographic analysis (run) and 10 counts per minute (cpm) peak height; therefore, radioactive peaks that were <1% of the total run or <10 cpm peak height were reported as not detected. In addition, pamiparib and standards were reported, regardless of the percentage of run or peak height.
For metabolite profiling in plasma, ≈1.9 to 2.8 g of each plasma sample collected 0.5, 1, 2, 6, 12, and 24 hours postdose was extracted twice with 6 mL of 0.1% formic acid in acetonitrile (ACN). Duplicate aliquots were analyzed by LSC to determine extraction recoveries, which ranged from 77.4% to 98.5%. The combined supernatants were evaporated to dryness under nitrogen and reconstituted in 2:1 reverse osmosis water:methanol (MeOH). Duplicate aliquots were analyzed by LSC to determine reconstitution recoveries, which ranged from 89.3% to 115%. The reconstituted samples were analyzed by LC‐MS, with eluent fractions collected at 10‐second intervals into 96‐well plates containing solid scintillant. Radioactivity in each well was determined using TopCount analysis, and radiochemical profiles were generated based on radioactivity counts.
(§2) Metabolic profiling was performed on plasma, urine, and feces samples using LC‐MS. Shimadzu/Nexera LC‐30AD pumps and Shimadzu/Prominence DGU‐20A5R degasser were used with Shimadzu/Prominence controller CBM‐20A. The high‐pressure liquid chromatograph (HPLC) was equipped with an autoinjector (Shimadzu/Nexera SIL‐30ACMP) set at 10°C and a fraction collector (Leap Technologies PAL HTC‐xt) set at 15°C. Thermo Fisher Scientific Q Exactive was the mass spectrometer system.

[4] = metabolite profiling in pooled urine (radioprofiling, LC‐MS); assay type: in vivo, human; settings: pooled urine
Procedure: as §1
Each aliquot of urine (about 1 mL, weighed) was added directly to liquid scintillant prior to LSC. For metabolite profiling, urine samples collected 0‐4, 4‐8, 8‐12, 12‐24, 24‐48, 48‐72, and 72‐96 hours postdose were pooled by individual patient to generate 0‐ to 96‐hour pooled samples including 0.2% of each sample by weight. The radioactivity in each pooled sample was determined by LSC. The total amount of urine collected was factored into the recovery calculation. […] Pooled urine samples were analyzed by LC‐MS, with eluent fractions collected at 10‐second intervals into 96‐well plates containing solid scintillant. Radioactivity in each well was determined using TopCount analysis, and radiochemical profiles were generated based on radioactivity counts.
as §2

[5] = 60‐mg single dose, n = 11, ref BGB‐290‐AU‐002, NCT02361723

## C[C@]12CCCN1CC1=NNC(=O)c3cc(F)cc4[nH]c2c1c34 [Pamiparib]
[1]
  antitumor activity: strong antitumor activity
  potency compared with olaparib: more potent than olaparib
[2]; [5]
  AUC0‐inf, geometric mean: 32 005 ng·h/mL
  Cmax, geometric mean: 1881 ng/mL
[2]; tested dose range 2.5‐120 mg
  pharmacokinetic profile (dose linearity): linear
[2]; up to 60 mg, patients
  tolerability: generally well tolerated
CYP2C8
  pamiparib remaining: 82.9%
[3]; based on high‐performance liquid chromatography‐liquid scintillation counting
  AUC0‐t, geometric mean: 19670 ngEq·h/mL
[3]; based on high‐performance liquid chromatography‐liquid solid chromatography
  Cmax, geometric mean: 1737 ngEq/mL
[3]; plasma, mean of patients
  mean percent of total radioactivity exposure in plasma (AUC0‐24h): 67.2% ± 10.2% and 67.2% and 67%
[3]; plasma, patient S101
  Percent of Total Radioactivity Concentration (AUC0‐24h): 78.0%
[3]; plasma, patient S102
  Percent of Total Radioactivity Concentration (AUC0‐24h): 72.6%
[3]; plasma, patient S103
  Percent of Total Radioactivity Concentration (AUC0‐24h): 63.2%
[3]; plasma, patient S104
  Percent of Total Radioactivity Concentration (AUC0‐24h): 55.0%
[4]
  dose quantified in urine: 52.5 % of the dose
